Source: patent US6576657B2, “Amidino derivatives and their use as thrombin inhibitors” (AstraZeneca AB, priority 1997, dated 2003)

Biological target: T1, Human thrombin (Homo sapiens, UniProt P00734)
T1 construct: conversion of the proenzyme prothrombin to the active enzyme thrombin; purchased Sigma Chem Co T 6769
Test: Test A: determination of thrombin clotting time (TT)
Assay type: biochemical
Settings: concentration of inhibitor that doubles the thrombin clotting time for human plasma
Method: Determination of Thrombin Clotting Time (TT)
The inhibitor solution (25 μL) was incubated with plasma (25 μL) for three minutes. Human thrombin (T 6769; Sigma Chem Co) in buffer solution, pH 7.4 (25 μL) was then added and the clotting time measured in an automatic device (KC 10; Amelung).
The clotting time in seconds was plotted against the inhibitor concentration, and the IC50TT was determined by interpolation.
IC50TT is the concentration of inhibitor in the test that doubles the thrombin clotting time for human plasma.

| SMILES | IC50 [nM] |
| --- | --- |
| COc1ccc2c(c1)C(O)(C(=O)N1CCC1C(=O)N(C)Cc1ccc(C(=N)N)cc1)CCC2 (single isomer, unassigned) [Example 37, (S)- or (R)-1-Hydroxy-7-methoxytetralin-1-yl-C(O)-Aze-N(Me)-Bzl-4-C(NH2)NH×HOAc] | < 300 |
| N=C(N)c1ccc(CNC(=O)[C@@H]2CCN2C(=O)C2(O)c3ccccc3-c3ccccc32)cc1 [Example 38, 9-Hydroxyfluoren-9-yl-C(O)-Aze-Pab×HOAc] | < 300 |
